Patent publication US7413536B1, “Substrates and screening methods for transport proteins” (XenoPort, Inc., priority 1999, dated 2008)

Columns and labels:
[1] = molecular target: T1, rat intestinal bile acid transporter (Rattus norvegicus, UniProt Q62633); assay: Substrate activity for the intestinal bile acid transporter; assay type: cell-based
T1 sequence (Q62633 1-348): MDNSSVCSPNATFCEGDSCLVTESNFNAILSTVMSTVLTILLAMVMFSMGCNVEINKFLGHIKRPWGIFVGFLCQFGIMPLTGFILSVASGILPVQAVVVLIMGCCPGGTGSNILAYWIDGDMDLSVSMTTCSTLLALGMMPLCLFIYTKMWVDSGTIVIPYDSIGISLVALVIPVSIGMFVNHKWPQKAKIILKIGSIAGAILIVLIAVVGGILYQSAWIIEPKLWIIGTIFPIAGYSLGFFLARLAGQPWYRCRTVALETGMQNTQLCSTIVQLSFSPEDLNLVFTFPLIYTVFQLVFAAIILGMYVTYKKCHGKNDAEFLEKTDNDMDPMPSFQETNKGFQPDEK

[2] = Oral absorption in rat; assay type: in vivo

Compound	substrate for the rat intestinal bile acid transporter [1]	hydrolysis upon oral absorption (uncharacterized amidase activity) releasing parent drug [2]	oral absorption ([2]; rat)
COc1ccc2cc(C(C)C(=O)NCCCCC(NC(=O)CCC(C)C3CCC4C5C(O)CC6CC(O)CCC6(C)C5CC(O)C34C)C(=O)O)ccc2c1 (stereo not shown) [Cholyl-Lysine-(ε-Naproxen)-OH]	retains activity	hydrolyzed	–
cholyl-lys-(ε-NBD)-OH [cholyl-L-Lys-(ε-NBD)-OH]	substrate	–	effectively absorbed orally
